Test results from ChEMBL document CHEMBL1201862, “PubChem BioAssay data set” (2004).
Activity calls are given as the source filed them.

Columns and labels:
[1] = miR-122Act:qPCR miR-122 Measured in Cell-Based System Using RT-PCR - 2144-04_Activator_Dose_CherryPick_Activity. (absACnn = the concentration at which the curve crosses threshold nn uM); assay type: functional
[2] = miR-122 activators in hepatoma reporter cells, dose response, cell-based, Huh7 psiCHECK-miR122, Renilla luciferase, cherry-picked (AID 651956); assay type: functional;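 also: huh7 hepatoma cells stably carrying a psiCHECK-2 miR-122 sensor plasmid; renilla luciferase signal reporting endogenous miR-122 activity after 48 h compound exposure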
[3] = HEK293 cell viability, dose response, counter-screen for EBV LMP1 inhibitor project, dry powder, set 2 (AID 624374); assay type: functional
[4] = HepG2 cell cytotoxicity, dose response, cytotoxicity control, luminescence plate reader, powder samples, set 2 (AID 651860); assay type: functional, cell-based
[5] = molecular target: Metabotropic glutamate receptor 3 (Rattus norvegicus, UniProt P31422); assay: mGlu3 NAM potency via calcium readout, dose response, mGlu3 NAM project, TREx293 cells, Galpha15, calcium flux (AID 651840); assay type: functional
Chain of Metabotropic glutamate receptor 3 (P31422 whole entry): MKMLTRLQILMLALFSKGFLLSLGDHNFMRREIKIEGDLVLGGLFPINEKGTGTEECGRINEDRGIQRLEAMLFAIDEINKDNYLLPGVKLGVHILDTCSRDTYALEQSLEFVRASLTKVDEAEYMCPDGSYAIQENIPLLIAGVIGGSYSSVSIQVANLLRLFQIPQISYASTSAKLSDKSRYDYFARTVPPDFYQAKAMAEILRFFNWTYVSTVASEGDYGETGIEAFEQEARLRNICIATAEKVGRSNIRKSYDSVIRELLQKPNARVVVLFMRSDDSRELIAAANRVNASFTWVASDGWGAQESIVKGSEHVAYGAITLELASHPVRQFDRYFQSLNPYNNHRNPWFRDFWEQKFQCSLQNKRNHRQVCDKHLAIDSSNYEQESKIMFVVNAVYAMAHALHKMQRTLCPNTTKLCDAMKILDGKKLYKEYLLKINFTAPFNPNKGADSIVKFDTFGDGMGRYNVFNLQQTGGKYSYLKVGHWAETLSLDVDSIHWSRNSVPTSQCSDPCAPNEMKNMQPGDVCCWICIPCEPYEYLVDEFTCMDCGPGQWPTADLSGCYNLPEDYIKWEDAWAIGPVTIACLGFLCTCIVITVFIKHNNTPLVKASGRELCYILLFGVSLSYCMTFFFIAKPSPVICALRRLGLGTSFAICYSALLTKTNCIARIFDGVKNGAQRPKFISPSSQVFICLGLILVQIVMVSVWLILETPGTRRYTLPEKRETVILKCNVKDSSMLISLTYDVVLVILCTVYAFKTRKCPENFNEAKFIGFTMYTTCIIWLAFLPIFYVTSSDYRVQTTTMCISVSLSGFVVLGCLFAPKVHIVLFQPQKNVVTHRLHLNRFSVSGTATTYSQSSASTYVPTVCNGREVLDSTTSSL

Large T antigen = Large T antigen (Simian virus 40, UniProt P03070); assay type: functional, Betapolyomavirus macacae;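 also: Confirmatory-stage PubChem screen for compounds that inhibit SV40 T antigen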
Chain of Large T antigen (P03070 whole entry): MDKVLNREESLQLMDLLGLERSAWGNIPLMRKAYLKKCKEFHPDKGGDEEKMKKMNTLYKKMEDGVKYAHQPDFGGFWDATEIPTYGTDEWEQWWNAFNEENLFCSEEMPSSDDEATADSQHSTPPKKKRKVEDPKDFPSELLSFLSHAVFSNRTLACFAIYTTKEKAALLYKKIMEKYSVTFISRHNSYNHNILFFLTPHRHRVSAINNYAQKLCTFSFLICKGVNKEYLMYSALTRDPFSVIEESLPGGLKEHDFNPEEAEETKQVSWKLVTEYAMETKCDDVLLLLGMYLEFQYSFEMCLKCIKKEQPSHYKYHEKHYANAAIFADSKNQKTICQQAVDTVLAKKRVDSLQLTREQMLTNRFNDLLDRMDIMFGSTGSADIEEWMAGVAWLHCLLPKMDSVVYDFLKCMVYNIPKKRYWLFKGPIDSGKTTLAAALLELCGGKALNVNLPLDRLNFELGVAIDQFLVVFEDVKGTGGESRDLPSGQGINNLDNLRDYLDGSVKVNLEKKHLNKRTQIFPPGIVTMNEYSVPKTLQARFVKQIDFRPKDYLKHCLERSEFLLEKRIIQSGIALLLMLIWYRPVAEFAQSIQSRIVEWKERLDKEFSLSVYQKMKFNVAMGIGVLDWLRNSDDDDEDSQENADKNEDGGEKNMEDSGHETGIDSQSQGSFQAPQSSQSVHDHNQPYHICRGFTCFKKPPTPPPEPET

[6] = molecular target: Bifunctional protein GlmU (Mycobacterium tuberculosis, UniProt P9WMN3); assay: Inhibitors of Mycobacterial Glucosamine-1-phosphate acetyl transferase (GlmU). Secondary screen.; set-up: species or system Mycobacterium tuberculosis H37Rv
Chain of Bifunctional protein GlmU (P9WMN3 whole entry): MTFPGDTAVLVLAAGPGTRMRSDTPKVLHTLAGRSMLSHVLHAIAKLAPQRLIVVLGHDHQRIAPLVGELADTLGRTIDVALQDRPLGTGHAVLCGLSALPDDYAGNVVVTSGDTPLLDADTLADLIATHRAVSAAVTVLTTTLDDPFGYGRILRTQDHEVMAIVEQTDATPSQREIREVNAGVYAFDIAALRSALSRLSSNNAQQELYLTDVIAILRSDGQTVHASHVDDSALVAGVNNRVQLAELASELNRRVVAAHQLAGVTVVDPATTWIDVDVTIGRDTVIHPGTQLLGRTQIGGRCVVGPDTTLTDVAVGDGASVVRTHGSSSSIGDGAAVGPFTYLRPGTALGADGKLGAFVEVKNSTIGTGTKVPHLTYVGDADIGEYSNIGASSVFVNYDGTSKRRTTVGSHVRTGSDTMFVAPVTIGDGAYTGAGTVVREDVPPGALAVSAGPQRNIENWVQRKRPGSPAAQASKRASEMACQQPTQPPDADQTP

[7] = molecular target: Tyrosine-protein phosphatase non-receptor type 11 (Homo sapiens, UniProt Q06124); assay: SHP2 phosphatase inhibition, dose response, selectivity assay for STEP inhibitor project, biochemical (AID 602367); assay type: functional; conditions: read-out: IC50_Mean
Chain of Tyrosine-protein phosphatase non-receptor type 11 (Q06124 whole entry): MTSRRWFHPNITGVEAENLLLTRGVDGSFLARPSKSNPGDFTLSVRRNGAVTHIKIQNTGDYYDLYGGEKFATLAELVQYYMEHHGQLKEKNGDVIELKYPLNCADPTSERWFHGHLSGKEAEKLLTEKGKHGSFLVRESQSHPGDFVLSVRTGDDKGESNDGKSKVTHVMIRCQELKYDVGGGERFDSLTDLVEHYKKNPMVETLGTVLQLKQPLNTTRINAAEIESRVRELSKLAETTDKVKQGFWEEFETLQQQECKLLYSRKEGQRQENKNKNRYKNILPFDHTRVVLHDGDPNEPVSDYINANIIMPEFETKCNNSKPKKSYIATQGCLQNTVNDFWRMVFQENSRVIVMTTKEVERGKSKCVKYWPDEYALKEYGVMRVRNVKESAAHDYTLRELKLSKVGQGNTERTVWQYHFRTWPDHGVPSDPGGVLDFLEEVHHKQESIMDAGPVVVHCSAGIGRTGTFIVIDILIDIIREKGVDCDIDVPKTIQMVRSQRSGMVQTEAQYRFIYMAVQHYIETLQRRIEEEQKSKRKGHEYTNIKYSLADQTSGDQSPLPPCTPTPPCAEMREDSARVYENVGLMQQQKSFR

[8] = molecular target: T1, Tyrosine-protein phosphatase non-receptor type 22 (Homo sapiens, UniProt Q9Y2R2); assay: PTPN22 phosphatase inhibition, dose response, selectivity assay for STEP inhibitor project, biochemical (AID 624241); assay type: functional
T1 sequence (Q9Y2R2 whole entry): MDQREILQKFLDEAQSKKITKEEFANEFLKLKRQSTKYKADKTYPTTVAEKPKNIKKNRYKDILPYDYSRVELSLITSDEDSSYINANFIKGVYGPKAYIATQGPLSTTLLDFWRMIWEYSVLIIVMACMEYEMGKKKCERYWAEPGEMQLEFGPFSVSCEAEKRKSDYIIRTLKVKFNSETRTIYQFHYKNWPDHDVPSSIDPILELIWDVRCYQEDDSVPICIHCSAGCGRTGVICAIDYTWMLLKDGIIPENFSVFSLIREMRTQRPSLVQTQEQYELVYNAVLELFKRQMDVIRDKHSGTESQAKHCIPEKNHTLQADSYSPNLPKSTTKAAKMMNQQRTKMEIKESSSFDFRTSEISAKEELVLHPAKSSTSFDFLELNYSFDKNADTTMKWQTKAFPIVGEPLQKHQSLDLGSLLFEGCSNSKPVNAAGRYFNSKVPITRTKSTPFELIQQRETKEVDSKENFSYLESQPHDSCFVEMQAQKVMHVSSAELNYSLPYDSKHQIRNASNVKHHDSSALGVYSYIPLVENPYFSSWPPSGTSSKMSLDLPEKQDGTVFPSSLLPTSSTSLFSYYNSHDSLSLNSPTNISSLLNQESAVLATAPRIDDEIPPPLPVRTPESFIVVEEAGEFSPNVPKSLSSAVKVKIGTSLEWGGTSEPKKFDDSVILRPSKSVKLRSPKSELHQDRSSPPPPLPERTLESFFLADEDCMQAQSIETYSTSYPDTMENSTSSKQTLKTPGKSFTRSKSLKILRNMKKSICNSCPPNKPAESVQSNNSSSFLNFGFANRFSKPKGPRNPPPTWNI

[9] = molecular target: Dual specificity protein phosphatase 3 (Homo sapiens, UniProt P51452); assay: VHR phosphatase inhibition, dose response, selectivity assay for STEP inhibitor project, biochemical (AID 602374); assay type: functional; conditions: read-out: IC50_Mean
Chain of Dual specificity protein phosphatase 3 (P51452 whole entry): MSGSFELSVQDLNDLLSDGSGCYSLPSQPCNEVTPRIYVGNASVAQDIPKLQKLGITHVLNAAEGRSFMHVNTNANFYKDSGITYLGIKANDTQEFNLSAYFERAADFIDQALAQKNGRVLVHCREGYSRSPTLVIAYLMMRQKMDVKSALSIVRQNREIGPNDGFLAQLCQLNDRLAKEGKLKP

[10] = T. cruzi intracellular amastigote growth inhibition, dose response, imaging, CA-I/72 strain, bovine embryo skeletal muscle, dry powder (AID 651885); assay type: functional, cell-based
[11] = T. cruzi growth inhibition in host cells, dose response, cell-based, plate reader, dry powder, set 2 (AID 652275); assay type: functional
[12] = molecular target: Potassium channel subfamily K member 3 (Homo sapiens, UniProt O14649); assay: TASK1 (KCNK3) potassium channel inhibitors, SAR follow-up, CHO cells, FluxOR thallium flux (AID 652212); assay type: functional
Chain of Potassium channel subfamily K member 3 (O14649 whole entry): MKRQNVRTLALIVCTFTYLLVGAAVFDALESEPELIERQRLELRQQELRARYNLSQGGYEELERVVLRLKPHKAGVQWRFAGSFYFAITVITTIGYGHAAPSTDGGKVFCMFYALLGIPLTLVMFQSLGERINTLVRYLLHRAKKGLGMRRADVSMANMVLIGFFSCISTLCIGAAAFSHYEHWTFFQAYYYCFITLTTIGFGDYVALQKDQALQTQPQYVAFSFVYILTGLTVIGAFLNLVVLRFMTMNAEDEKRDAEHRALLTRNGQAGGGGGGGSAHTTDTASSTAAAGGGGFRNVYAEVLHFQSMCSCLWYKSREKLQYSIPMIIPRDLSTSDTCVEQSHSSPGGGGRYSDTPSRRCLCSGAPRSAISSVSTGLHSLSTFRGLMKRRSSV

[13] = molecular target: Potassium channel subfamily K member 9 (Homo sapiens, UniProt Q9NPC2); assay: TASK3 (KCNK9) channel inhibitors, thallium flux, SAR follow-up, selectivity assay for TASK1 inhibitor project, cell-based, FluxOR thallium flux, concentration-response (AID 652211); assay type: functional;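 also: potency is for inhibitors of the channel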
Chain of Potassium channel subfamily K member 9 (Q9NPC2 whole entry): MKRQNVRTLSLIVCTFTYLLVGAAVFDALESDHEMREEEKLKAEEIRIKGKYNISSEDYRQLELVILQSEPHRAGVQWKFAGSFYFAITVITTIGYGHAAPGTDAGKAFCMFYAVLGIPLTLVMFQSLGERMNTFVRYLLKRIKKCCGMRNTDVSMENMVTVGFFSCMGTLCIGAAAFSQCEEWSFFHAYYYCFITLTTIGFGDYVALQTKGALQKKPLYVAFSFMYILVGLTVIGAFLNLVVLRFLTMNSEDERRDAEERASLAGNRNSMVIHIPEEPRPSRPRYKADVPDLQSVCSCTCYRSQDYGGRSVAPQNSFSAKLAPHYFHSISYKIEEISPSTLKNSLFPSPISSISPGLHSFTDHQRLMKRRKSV

[14] = inhibitors of non-replicating M. tuberculosis, dose response, luciferase, dry powder (AID 651619); assay type: functional; conditions: Mycobacterium tuberculosis
[15] = inhibitors of non-replicating M. tuberculosis, dose response, luciferase, dry powder (AID 651620); assay type: functional; conditions: Mycobacterium tuberculosis
Protein Wnt-3a = Protein Wnt-3a (Mus musculus, UniProt P27467); assay: SAR analysis of small molecule antagonists of Gli-SUFU in a Wnt3a luminescent reporter assay.; assay type: functional
Chain of Protein Wnt-3a (P27467 whole entry): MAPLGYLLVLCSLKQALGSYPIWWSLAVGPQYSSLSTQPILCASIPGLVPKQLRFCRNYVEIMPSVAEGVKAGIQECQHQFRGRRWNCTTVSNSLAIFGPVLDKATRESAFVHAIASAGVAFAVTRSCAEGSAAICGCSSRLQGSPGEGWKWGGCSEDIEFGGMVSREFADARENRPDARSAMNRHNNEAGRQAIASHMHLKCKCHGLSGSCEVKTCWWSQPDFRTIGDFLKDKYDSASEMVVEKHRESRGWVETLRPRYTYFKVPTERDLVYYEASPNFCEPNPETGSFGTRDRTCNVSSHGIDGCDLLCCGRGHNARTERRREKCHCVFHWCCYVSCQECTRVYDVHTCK

[16] = molecular target: Induced myeloid leukemia cell differentiation protein Mcl-1 (Homo sapiens, UniProt Q07820); assay type: functional
Chain of Induced myeloid leukemia cell differentiation protein Mcl-1 (Q07820 whole entry): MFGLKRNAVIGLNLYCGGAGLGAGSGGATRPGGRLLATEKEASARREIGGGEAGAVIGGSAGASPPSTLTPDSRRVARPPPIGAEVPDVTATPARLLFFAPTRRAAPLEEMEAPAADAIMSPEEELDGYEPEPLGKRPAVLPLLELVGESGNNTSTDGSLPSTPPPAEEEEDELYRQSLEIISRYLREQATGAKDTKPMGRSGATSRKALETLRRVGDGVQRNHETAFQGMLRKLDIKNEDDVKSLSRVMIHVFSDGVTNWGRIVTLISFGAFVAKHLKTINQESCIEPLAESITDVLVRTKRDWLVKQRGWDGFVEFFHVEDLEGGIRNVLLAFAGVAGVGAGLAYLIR

cells = conditions: A549
[17] = THP-1 cell cytotoxicity, dose response, cytotoxicity control for Vif-APOBEC3G degradation inhibitor project, THP-1 cells (AID 1117359); assay type: functional; conditions: Human immunodeficiency virus 1, THP-1
[18] = inhibitors of PGC1a acetylation in cells, dose response, cell-based, cherry-picked samples (AID 720514); assay type: functional;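 also: potency may reflect raised or lowered acetylation signal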

Q: Which AbsAC40_uM [1] does the source give for Cc1cccc(NC(=O)Nc2ccc3c(c2)C(=O)N(C)[C@@H]2CC[C@H](CC(=O)NCc4ccccc4Cl)O[C@H]2CO3)c1 here?
A: 8.38 µM

Q: What about the AC50 [2] of the same compound?
A: 9.59 µM (active)

Q: With C[C@@H]1CN([C@@H](C)CO)C(=O)Cc2cc(NC(=O)Cc3ccccc3)ccc2O[C@@H]1CN(C)Cc1ccc(C(F)(F)F)cc1 as the compound, how does the AbsAC35 [3] read?
A: 279.95 µM

Q: Which AC50 [4] does the source give for O=C(O)[C@@H]1CCCC[C@@H]1C(=O)N1CCc2ccccc2[C@@H]1CN1C(=O)c2ccccc2C1=O here?
A: > 52 µM (inactive)

Q: Which IC50 [5] does the source give for COc1ccc(C#Cc2ccc(C(=O)NC(C)CO)cc2)cc1 (stereo unspecified) here?
A: 4.73 µM

Q: Which results are given for O=C(O)C(S)C(S)C(=O)O (stereo unspecified)?
A: IC50 (Large T antigen): 75.9 µM (active); IC50 [6]: 181 µM (active); IC50 [7]: 0.518 µM (active); IC50 [8]: 4.48 µM (active); IC50 [9]: 3.22 µM (active)

Q: With C[C@H]1CN([C@@H](C)CO)C(=O)c2cccc(NC(=O)c3ccncc3)c2O[C@@H]1CN(C)Cc1ccncc1 as the compound, how does the IC50 [10] read?
A: > 20 µM (inactive)

Q: Which AC50 [11] does the source give for C[C@H]1CN([C@@H](C)CO)C(=O)c2cccc(NC(=O)c3ccncc3)c2O[C@@H]1CN(C)Cc1cccc(Cl)c1Cl here?
A: 0.0255 µM (active)

Q: With CCOc1ccccc1NC(=O)c1cccc(NC(=O)C2CC2)c1 as the compound, how does the IC50 [12] read?
A: 1.07 µM (active)

Q: And the IC50 [13]?
A: 10.2 µM (active)

Q: For c1ccc(CSc2nnc(-c3ccncc3)o2)nc1, which IC90 [14] is on record?
A: 16 µM (active)

Q: And the IC90 [15]?
A: 16 µM (active)

Q: Which IC50 (Protein Wnt-3a) does the source give for CC(C)(C)OC(=O)N1CCN(c2cc(NC(=O)c3ccccc3)ncn2)CC1 here?
A: > 21.8 µM (inactive)

Q: What does the source list for Cc1cccn2c(=O)c3cc(C(=O)NCc4ccco4)c(=N)n(CCc4ccccc4)c3nc12?
A: IC50 [16]: 3.57 µM (active); AC50 (cells): 39.9 µM (active); CC50 [17]: 38.1 µM (active); AC50 [18]: 28.4 µM (active)
